Experimental data reported in PMC9132363 (Journal of Medicinal Chemistry, 2022).
Read-outs that look alike come from different tables or passages of the source.

Experiments:
sALS lymphoblasts = assay: NRF2 pathway in sALS lymphoblasts; assay type: cell-based, human; details: 20 μM, 24 h, vs untreated sALS lymphoblasts
From the text: Peripheral blood samples of all the individuals enrolled in this study were collected after written informed consent of the patients or their relatives (demographic information is presented in Table 9) to establish the lymphoblastoid cell lines (LCLs), by infecting peripheral blood lymphocytes with the Epstein–Barr virus (EBV), as previously described.[68] Participants or their relatives gave written informed consent. This study was approved by the Hospital Doce de Octubre and the Spanish Council of Higher Research Institutional Review Boards. All patients were diagnosed by applying the revised El Escorial criteria.[69] […] Genetic testing for SOD1, TARDBP, FUS, and C9ORF72 was performed in all cases.
LCLs were grown in suspensions in T flasks, in an RPMI-1640 medium containing 2 mM L-glutamine, 100 μg/mL streptomycin/penicillin, and 10% (v/v) fetal bovine serum (FBS) and maintained in a humidified 5% CO2 incubator at 37 °C.
(§1) Whole cell lysates were prepared in RIPA-buffer (25 mM Tris-HCl, pH 7.6, 150 mM NaCl, 1 mM EGTA, 1% Igepal, 1% sodium deoxycholate, 0.1% SDS, 1 mM PSMF, 1 mM Na3VO4, 1 mM NaF, 1 μg/mL aprotinin, 1 μg/mL leupeptin, and 1 μg/mL pepstatin). […] Immunoblots were analyzed as described previously.[48] […]
Total RNA extraction, reverse transcription, and quantitative polymerase chain reaction (PCR) were done as detailed in previous articles.[72] […]

Keap1+/+ MEFs = assay: qRT-PCR of NRF2 target genes in wild-type MEFs; assay type: cell-based, mouse; details: 20 μM, 4, 8 and 24 h
Experimental: (§2) Human embryonic kidney (HEK) 293T cells were grown in Dulbecco’s modified Eagle’s medium (DMEM) supplemented with 10% fetal bovine serum and 80 μg/mL gentamycin. Transient transfections were performed with calcium phosphate using reagents from Sigma. The Keap1^–/– mouse embryo fibroblasts (MEFs) and their corresponding wild-type Keap1^+/+ MEFs were kindly provided by Dr. Ken Itoh (Department of Stress Response Science, Center for Advanced Medical Science, Hirosaki University, Japan). MEFs were grown in DMEM supplemented with 10% fetal bovine serum, 1% penicillin/streptomycin, and 2 mm L-glutamine. SH-SY5Y cells were grown in DMEM and Ham’s F12 supplemented with 10% fetal bovine serum (FBS) and 1% penicillin/streptomycin. The medium was changed to serum-free DMEM without antibiotics 16 h before treatments. DMF (cat. no. 242926, Sigma-Aldrich) was used at 20 μM for 16 h.
(§3) Total RNA extraction, reverse transcription, and quantitative polymerase chain reaction (PCR) were done as detailed in previous articles.[72] Primer sequences are shown in Supporting Information Table S5. Data analysis was based on the ΔΔCT method with normalization of the raw data to housekeeping genes (Applied Biosystems). All PCRs were performed in triplicates.

[1] = target: human serum albumin (HSA) (Homo sapiens, UniProt P02768); assay: Serum albumin binding by fluorescence quenching; details: HSA 2 μM, λex 280 nm, λem 337 nm
Chain of human serum albumin (HSA) (P02768 25-609): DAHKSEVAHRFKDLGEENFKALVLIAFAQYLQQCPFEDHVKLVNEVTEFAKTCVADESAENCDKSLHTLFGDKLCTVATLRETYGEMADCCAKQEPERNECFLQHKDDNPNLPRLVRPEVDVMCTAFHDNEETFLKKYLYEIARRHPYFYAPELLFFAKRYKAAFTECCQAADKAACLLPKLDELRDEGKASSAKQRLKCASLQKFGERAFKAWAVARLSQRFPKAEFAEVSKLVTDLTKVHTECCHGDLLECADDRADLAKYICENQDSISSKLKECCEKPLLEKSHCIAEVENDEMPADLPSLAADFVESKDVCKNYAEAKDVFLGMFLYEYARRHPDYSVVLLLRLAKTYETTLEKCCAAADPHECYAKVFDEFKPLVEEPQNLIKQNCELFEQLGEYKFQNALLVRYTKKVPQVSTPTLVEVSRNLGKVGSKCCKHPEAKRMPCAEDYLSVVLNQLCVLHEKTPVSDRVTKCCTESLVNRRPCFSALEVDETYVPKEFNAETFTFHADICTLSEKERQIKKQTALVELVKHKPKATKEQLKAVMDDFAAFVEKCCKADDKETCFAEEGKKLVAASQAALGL
Experimental: After each addition, the mixture was incubated at rt for 5 min, and then, the emission fluorescence spectra of HAS (λ = 280 nm) were measured using a Fluorometer Max-4P (Horiba Jobin Yvon). The data obtained were further processed using the Stern–Volmer and Scatchard models in GraphPad Prism 8.0 software.

[2] = Liver microsome stability assay; details: human, pooled human liver microsomes, pH 7.4
Experimental: This assay provides information on the metabolic stability of early drug discovery compounds based on liver microsomes. […] The reaction was initiated by adding NADPH (1 mM final concentration). Aliquots of 150 μL were collected at defined time points (0, 5, 15, 30, and 60 min) and added to cold acetonitrile (150 μL) containing an internal standard (5 μg/mL warfarin) to stop the reaction and precipitate the protein. […] Data were log transformed and represented as half-life. All experiments were conducted in duplicates.

Keap1–/– MEFs = assay: qRT-PCR of NRF2 target genes in KEAP1-deficient MEFs; assay type: cell-based, mouse; details: 20 μM, 4, 8 and 24 h
Experimental: as §2, §3

[3] = target: NRF2–KEAP1 protein–protein interaction (Homo sapiens, UniProt Q14145); assay: Fluorescence polarization (FP) assay; assay type: binding
Chain of NRF2–KEAP1 protein–protein interaction (Q14145 whole entry): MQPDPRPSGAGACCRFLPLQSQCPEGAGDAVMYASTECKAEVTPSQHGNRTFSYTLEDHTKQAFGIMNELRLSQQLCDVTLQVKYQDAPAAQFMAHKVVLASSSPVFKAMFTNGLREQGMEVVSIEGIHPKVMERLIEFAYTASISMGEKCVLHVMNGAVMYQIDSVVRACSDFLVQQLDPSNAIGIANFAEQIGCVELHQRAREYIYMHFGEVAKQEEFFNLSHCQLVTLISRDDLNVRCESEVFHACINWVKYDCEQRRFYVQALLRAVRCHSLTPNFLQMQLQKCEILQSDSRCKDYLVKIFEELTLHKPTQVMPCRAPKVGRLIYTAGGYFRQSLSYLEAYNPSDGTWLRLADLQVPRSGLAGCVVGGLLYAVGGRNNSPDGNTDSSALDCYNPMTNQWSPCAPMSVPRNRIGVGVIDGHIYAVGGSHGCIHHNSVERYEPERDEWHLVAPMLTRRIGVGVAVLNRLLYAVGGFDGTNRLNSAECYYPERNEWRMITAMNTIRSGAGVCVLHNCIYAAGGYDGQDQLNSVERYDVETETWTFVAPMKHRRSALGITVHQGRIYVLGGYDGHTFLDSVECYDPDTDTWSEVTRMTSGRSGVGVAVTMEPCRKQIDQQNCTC

NRF2 in SH-SY5Y cells = assay: Subcellular fractionation and immunoblot of NRF2; assay type: cell-based; details: 20 μM, 1, 2 and 4 h
Experimental: SH-SY5Y cells were seeded in p100 plates (1 × 10^6 cells/plate) and treated with 20 μM compound 1d. Cytosolic and nuclear fractions were prepared as described previously.[71] Briefly, cells were washed with cold PBS and harvested by centrifugation at 1100 rpm for 10 min. The cell pellet was resuspended in 3 pellet volumes of cold buffer A (20 mm HEPES, pH 7.0, 0.15 mm EDTA, 0.015 mm EGTA, 10 mm KCl, 1% Nonidet P-40, 1 mm phenylmethylsulfonyl fluoride, 20 mm NaF, 1 mm sodium pyrophosphate, 1 mm sodium orthovanadate, and 1 μg/mL leupeptin) and incubated in ice for 30 min. Then, the homogenate was centrifuged at 500g for 5 min. The supernatants were taken as the cytosolic fraction. The nuclear pellet was resuspended in 5 volumes of cold buffer B (10 mm HEPES, pH 8.0, 0.1 mm EDTA, 0.1 mm NaCl, 25% glycerol, 1 mm phenylmethylsulfonyl fluoride, 20 mm NaF, 1 mm sodium pyrophosphate, 1 mm sodium orthovanadate, and 1 μg/mL leupeptin). After centrifugation in the same conditions indicated above, the nuclei were resuspended in loading buffer containing 0.5% SDS. […]
as §1

NRF2 = assay: 3×ARE-LUC luciferase reporter assay; assay type: cell-based, human
Experimental: Transient transfections of HEK293T cells were performed with the expression vectors for TK-Renilla (Promega, Madison, […]) and the expression vector ARE-LUC (Dr. J. Alam, Dept. of Molecular Genetics, Ochsner Clinic Foundation, New Orleans, LA). Cells were seeded on 24-well plates (75,000 cells per well), cultured for 16 h, and transfected using calcium phosphate. Eight hours after transfections, cells were treated with 3 different concentrations of the compounds (6, 20, and 60 μM). […] After 16 h, the cells were lysed and assayed with a dual-luciferase assay system (Promega) according to the manufacturer’s instructions. Relative light units were measured in a GloMax 96 microplate luminometer with dual injectors (Promega).

- Stern–Volmer quenching constant KSV [1]: 1.68 × 10^5 L mol^–1
- half-life at 1 h, 8 µM [2]: 35.7 min
- inhibition at 100 µM ([3]; 100 μM, read-out: FP % inhibition (± S.E.M.)): < 10%
- inhibition of the NRF2–KEAP1 interaction ([3]; FP and DSF, 100 μM or lower concentrations): not able to inhibit
- activation of the NRF2 reporter (NRF2; in words, 6, 20 and 60 μM): dose-dependent activation
SMILES: O=C(CCc1ccc(O)c(O)c1)N1CCCN(S(=O)(=O)c2cccc3cnccc23)CC1 [Compound 1d, 3-(3,4-Dihydroxyphenyl)-1-(4-(isoquinolin-5-ylsulfonyl)-1,4-diazepan-1-yl)propan-1-one]
- NRF2 and activity of its signaling pathway (sALS lymphoblasts): did not produce a significant increase
- mRNA levels of HMOX1 and NQO1 (Keap1+/+ MEFs): increased the mRNA levels
- expression of HMOX1 (Keap1–/– MEFs): to a lesser extent than in the wild-type cells
- expression of NQO1 (Keap1–/– MEFs): not capable of inducing
- subcellular distribution of NRF2 (NRF2 in SH-SY5Y cells): induced a significant accumulation of NRF2 in the nucleus
- NRF2 induction, CD (concentration needed to double luciferase expression) (NRF2; HEK293T, 3×ARE-LUC): 1 µM
- fold induction at 20 µM (NRF2; Homo sapiens, 16 h, 20 microM, supplementary CSV, read-out: NRF2 induction @ 20 microM (fold change)): 4.4 ± 0.27
- fold induction at 6 µM (NRF2; Homo sapiens, HEK-293T, 6 µM, HEK293T, 16 h, read-out: Luciferase assay response): 2.5 ± 0.05
- fold induction at 20 µM (NRF2; Homo sapiens, HEK-293T, 20 µM, HEK293T, 16 h, read-out: Luciferase assay response): 4.4 ± 0.27
- fold induction at 60 µM (NRF2; Homo sapiens, HEK-293T, 60 µM, HEK293T, 16 h, read-out: Luciferase assay response): 13.6 ± 1.6
